Source: patent US10457654B2 (GENENTECH, INC., priority 2017, dated 2019)
Counter-ions that a name gives are not always drawn.

Legend:
hNav1.7 [1] = target: T1, hNav1.7 (Homo sapiens (Human), UniProt Q15858); test: Patch voltage clamp electrophysiology assay (EP), Syncropatch 384PE, CHO cells expressing Nav1.7; type: cell-based; conditions: holding potential -50 mV; […] compound incubation; read-out: EP_SP hNav1.7 (Ex. 243B) IC50
Summary of the method: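 Automated whole-cell patch clamp on CHO cells stably expressing human Nav1.7, CsCl/EGTA internal and NMDG/80 mM Na+ external (pH 7.4). From −50 mV holding, −10 mV step, 20 ms recovery at −150 mV, then second −10 mV pulse where block is measured; inhibition after 7.5 min compound incubation.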
Target sequence in this assay (Q15858 other isoform, or with tags, fused parts or gaps): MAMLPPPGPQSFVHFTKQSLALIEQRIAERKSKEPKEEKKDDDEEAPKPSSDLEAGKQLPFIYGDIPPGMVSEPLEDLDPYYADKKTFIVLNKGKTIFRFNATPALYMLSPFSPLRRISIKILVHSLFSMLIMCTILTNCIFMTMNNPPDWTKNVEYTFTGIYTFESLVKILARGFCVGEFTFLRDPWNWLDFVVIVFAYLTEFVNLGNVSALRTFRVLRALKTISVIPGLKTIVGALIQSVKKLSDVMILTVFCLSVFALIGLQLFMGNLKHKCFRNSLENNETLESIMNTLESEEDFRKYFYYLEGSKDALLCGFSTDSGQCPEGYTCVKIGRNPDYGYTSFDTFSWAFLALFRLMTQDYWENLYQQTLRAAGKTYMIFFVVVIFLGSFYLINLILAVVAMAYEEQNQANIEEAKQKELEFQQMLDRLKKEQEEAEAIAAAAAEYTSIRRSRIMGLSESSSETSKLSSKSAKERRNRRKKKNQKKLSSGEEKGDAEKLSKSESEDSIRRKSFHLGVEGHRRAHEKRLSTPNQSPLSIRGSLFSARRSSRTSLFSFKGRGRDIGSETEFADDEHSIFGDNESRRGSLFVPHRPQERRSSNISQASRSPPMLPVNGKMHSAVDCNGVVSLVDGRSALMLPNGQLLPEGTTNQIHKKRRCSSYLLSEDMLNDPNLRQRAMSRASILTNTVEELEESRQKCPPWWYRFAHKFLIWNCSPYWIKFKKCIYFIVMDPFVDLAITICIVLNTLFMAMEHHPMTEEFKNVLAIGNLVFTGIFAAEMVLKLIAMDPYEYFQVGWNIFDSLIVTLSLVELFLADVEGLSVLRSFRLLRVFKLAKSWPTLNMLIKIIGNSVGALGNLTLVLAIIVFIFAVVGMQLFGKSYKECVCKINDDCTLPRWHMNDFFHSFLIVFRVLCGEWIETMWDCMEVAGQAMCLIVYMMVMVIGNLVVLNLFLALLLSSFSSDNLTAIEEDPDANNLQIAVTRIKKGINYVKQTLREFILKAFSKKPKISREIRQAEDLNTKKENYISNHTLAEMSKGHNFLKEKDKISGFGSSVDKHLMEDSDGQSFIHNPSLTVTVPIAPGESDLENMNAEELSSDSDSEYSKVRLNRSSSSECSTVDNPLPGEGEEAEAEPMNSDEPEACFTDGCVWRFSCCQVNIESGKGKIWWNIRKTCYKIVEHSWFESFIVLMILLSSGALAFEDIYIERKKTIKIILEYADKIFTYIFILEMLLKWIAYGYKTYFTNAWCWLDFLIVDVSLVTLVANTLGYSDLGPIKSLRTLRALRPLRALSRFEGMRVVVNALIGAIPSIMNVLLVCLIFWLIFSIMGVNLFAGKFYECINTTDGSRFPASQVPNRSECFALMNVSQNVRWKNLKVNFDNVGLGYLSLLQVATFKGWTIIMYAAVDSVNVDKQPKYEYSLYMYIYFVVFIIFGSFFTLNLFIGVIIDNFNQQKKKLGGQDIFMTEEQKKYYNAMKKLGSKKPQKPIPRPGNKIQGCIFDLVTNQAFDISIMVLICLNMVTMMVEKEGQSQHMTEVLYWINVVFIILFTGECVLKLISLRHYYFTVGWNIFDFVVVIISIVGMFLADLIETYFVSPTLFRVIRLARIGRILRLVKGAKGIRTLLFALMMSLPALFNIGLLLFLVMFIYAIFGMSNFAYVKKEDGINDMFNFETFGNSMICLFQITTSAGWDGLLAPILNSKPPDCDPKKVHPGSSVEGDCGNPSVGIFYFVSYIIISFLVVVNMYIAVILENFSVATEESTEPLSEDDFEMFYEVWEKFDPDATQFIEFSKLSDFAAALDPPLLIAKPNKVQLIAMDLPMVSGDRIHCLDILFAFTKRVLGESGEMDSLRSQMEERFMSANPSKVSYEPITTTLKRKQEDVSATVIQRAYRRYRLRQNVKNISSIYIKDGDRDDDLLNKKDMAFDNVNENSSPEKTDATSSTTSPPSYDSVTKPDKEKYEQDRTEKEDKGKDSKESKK

hNav1.7 [2] = target: T1, hNav1.7; test: Tritiated compound binding to membranes from cells expressing hNav1.7 and the β1 subunit, modified protocol (LBA, Ex. 243B); conditions: 300 pM [3H]compound, room temperature, read-out: Nav1.7 LBA (Ex. 243B) IC50
Target sequence in this assay (Q15858 whole entry, looked up): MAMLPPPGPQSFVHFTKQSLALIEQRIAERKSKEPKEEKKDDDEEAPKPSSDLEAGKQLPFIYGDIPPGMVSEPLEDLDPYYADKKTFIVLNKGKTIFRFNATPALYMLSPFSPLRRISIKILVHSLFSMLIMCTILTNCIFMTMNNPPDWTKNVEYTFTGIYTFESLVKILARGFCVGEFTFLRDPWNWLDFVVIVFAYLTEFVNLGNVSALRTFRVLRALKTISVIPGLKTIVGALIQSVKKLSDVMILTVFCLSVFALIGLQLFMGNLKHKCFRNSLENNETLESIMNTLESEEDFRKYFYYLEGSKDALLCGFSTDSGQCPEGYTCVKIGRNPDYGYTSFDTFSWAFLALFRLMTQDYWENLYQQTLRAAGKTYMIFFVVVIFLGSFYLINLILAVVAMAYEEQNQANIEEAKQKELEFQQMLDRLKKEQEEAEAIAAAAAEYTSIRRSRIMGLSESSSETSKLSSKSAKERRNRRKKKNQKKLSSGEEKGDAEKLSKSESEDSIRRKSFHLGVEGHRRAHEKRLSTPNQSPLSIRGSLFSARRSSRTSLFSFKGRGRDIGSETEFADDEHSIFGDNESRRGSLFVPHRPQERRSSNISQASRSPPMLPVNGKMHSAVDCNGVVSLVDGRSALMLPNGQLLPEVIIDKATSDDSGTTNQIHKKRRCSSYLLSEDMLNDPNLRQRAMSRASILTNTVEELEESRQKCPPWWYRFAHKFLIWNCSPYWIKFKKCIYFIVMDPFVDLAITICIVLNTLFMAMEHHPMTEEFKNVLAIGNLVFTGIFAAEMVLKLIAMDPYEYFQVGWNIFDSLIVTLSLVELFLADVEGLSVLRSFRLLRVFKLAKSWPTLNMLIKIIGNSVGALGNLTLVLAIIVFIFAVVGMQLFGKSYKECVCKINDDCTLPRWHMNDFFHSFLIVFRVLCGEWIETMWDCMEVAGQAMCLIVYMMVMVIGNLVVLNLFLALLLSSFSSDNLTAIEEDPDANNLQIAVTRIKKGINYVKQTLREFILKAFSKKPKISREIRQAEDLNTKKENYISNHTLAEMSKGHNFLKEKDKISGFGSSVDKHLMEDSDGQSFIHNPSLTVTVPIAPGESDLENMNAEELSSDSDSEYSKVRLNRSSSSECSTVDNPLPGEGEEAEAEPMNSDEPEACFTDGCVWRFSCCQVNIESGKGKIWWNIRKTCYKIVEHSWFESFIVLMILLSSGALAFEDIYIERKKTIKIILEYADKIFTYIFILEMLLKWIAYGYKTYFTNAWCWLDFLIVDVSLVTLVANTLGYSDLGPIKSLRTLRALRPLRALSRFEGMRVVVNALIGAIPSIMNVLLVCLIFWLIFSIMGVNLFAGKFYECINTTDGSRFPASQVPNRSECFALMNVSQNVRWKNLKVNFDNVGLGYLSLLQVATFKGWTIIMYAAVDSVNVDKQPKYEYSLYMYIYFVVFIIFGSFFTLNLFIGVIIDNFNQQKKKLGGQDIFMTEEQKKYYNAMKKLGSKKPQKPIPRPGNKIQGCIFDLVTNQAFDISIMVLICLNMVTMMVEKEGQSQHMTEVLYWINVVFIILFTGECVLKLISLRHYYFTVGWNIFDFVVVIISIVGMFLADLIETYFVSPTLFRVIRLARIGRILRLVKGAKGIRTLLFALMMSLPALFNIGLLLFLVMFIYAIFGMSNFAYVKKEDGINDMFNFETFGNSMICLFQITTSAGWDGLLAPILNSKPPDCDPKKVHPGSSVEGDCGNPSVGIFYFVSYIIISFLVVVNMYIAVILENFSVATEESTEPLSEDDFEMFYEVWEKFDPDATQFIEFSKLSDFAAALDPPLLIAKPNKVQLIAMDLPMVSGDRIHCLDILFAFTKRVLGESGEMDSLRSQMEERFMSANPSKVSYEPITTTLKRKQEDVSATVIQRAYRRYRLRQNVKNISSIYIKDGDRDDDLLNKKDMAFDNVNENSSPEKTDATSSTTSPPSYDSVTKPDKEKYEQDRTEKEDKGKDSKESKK
Target sequence in this assay (Q07699 whole entry partner, looked up): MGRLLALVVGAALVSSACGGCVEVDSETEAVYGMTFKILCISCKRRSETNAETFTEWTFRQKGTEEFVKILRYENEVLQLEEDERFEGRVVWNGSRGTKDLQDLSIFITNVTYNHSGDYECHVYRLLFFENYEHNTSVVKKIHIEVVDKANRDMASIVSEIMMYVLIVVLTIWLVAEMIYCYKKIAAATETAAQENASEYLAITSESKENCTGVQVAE

hNav1.7 [3] = target: T1, hNav1.7; test: Tritiated compound binding to membranes from cells expressing hNav1.7 and the β1 subunit, competitive binding (LBA, Ex. 243A); conditions: 100 pM [3H]compound, 18 h, room temperature; read-out: Nav1.7 LBA (Ex. 243A) IC50
Target sequence in this assay (Q15858 whole entry, looked up): as the sequence (Q15858 whole entry, looked up) above
Target sequence in this assay (Q07699 whole entry partner, looked up): as the sequence (Q07699 whole entry partner, looked up) above

| SMILES | IC50 (hNav1.7 [1]) [nM] | IC50 (hNav1.7 [2]) [nM] | IC50 (hNav1.7 [3]) [nM] |
| --- | --- | --- | --- |
| CN(C1CNC1)[C@H]1CCCC[C@@H]1Oc1cc(F)c(S(=O)(=O)Nc2nccs2)cc1Cl [Example 66, 4-(((1S,2S)-2-(azetidin-3-yl(methyl)amino)cyclohexyl)oxy)-5-chloro-2-fluoro-N-(thiazol-2-yl)benzenesulfonamide formate] | 2.91 | 7.74 | 2.07 |
| CN(C1CNC1)[C@H]1CCCC[C@@H]1Nc1cc(F)c(S(=O)(=O)Nc2ccncn2)cc1Cl [Example 53, 4-(((1S,2S)-2-(azetidin-3-yl(methyl)amino)cyclohexyl)amino)-5-chloro-2-fluoro-N-(pyrimidin-4-yl)benzenesulfonamide] | 5.69 | – | 30.5 |
| CN(C1CNC1)[C@H]1CCCC[C@@H]1Nc1cc(F)c(S(=O)(=O)Nc2nccs2)cc1Cl [Example 39, 4-(((1S,2S)-2-(azetidin-3-yl(methyl)amino)cyclohexyl)amino)-5-chloro-2-fluoro-N-(thiazol-2-yl)benzenesulfonamide dihydrochloride] | 1.4 | 12.8 | 1.88 |
| CN(CCO)[C@H]1CCCC[C@@H]1Nc1cc(F)c(S(=O)(=O)Nc2nccs2)cc1Cl [Example 38, 5-chloro-2-fluoro-4-(((1S,2S)-2-((2-hydroxyethyl)(methyl)amino)cyclohexyl)amino)-N-(thiazol-2-yl)benzenesulfonamide formate] | 3.06 | 34.9 | 5.05 |
| CN(C)[C@H]1CCCC[C@@H]1Nc1cc(F)c(S(=O)(=O)Nc2cccc(F)n2)cc1Cl [Example 35, 5-chloro-4-(((1S,2S)-2-(dimethylamino)cyclohexyl)amino)-2-fluoro-N-(6-fluoropyridin-2-yl)benzenesulfonamide] | 59.9 | 313 | 65.5 |
